Here are results for nine compounds from patent publication US7534763B2 (Bristol-Myers Squibb Company, priority 2004, dated 2009).

Common to all, as to assay type: in vivo
The nature of series [1]: Dog pharmacokinetic study (iv and sc, solution vehicles). To be noted: vehicle propylene glycol/pH 7.4 phosphate buffer (1:1); for AUC: male, beagle, dog, plasma, sc, 67 ug/kg, Table II, read-out: Exposure in dogs (sc@67 μg/kg). As for the experimental part:
The pharmacokinetic parameters of the compound of SEQ ID NO:9 were determined in male beagle dogs (n=4, 14±1 kg). Following an overnight fast, each animal received the compound of SEQ ID NO:9 either as an intravenous bolus via femoral vein (67 μg/kg) or by subcutaneous injection given at near the shoulder blades (67 μg/kg). Each animal received both intravenous and subcutaneous doses with a one-week washout between doses following a crossover design. […] Serial blood samples were collected in EDTA-containing microcentrifuge tubes at predose, 0.083, 0.25, 0.5, 0.75, 1, 2, 4, 6, 8, 24, and 30 hours post-dose after intravenous administration; at predose, 0.25, 0.5, 0.75, 1, 2, 4, 6, 8, 24, and 30 hours post-dose after subcutaneous administration. Approximately 0.3 mL of blood was collected at each time point. Blood samples were immediately centrifuged at 4° C. The obtained plasma was frozen with dry ice and stored at −20° C. Plasma drug levels were determined using the LC-MS/MS assay described above.
Plasma samples from in vivo dog study were prepared for analysis by precipitating plasma proteins with two volumes of acetonitrile containing an internal standard. The samples were vortex mixed and removed the precipitated proteins by centrifugation. The resulting supernatants were transferred to a 96-well plate and 10 μL were injected for analysis. Samples were prepared with the Packard Multiprobe II and Quadra 96 Liquid Handling System.
The HPLC system consisted of two Shimadzu LC10AD pumps (Columbia, Md.), a CTC PAL autosampler (Leap Technologies, Switzerland). The column used was a YMC Hydrosphere C18 (2.0×50 mm, 3 μm) (YMC, Inc., Milford, Ma.). The column temperature was maintained at 50° C. and the flow rate was 0.3 mL/minute. The mobile phase A consisted of 10 mM ammonium formate and 0.1% formic acid in water and mobile phase B consisted of 0.1% formic acid in acetonitrile. The initial mobile phase composition was 5% B, and remained at 5% B for one minute to equilibrate the column. The composition was ramped to 95% B over two minutes and held there for one additional minute. The mobile phase was then returned to initial conditions in one minute. Total analysis time was five minutes. A switching valve was used. The eluents between 0-1 minute were diverted to the waste.
The HPLC was interfaced to a Sciex API 4000 mass spectrometer, (Applied Biosystems, Foster City, Calif.) and was equipped with a TurboIonspray ionization source. Ultra high purity nitrogen was used as the nebulizing and turbo gas. The temperature of turbo gas was set at 300° C. and the interface heater was set at 60° C. Data acquisition utilized selected reaction monitoring (SRM). Ions representing the (M+2H)^2+ species for the compound of SEQ ID NO:9, and (M+2H)^2+ for BMS-501143 (IS) were selected in Q1 and were collisionally dissociated with high purity nitrogen at a pressure of 3.5×10^−3torr to form specific product ions which were subsequently monitored by Q3.
The standard curve concentrations, ranging from 1 to 1000 nM and from 4 to 5000 nM, were used for the in vivo samples obtained from low and high doses, respectively. The curves were fitted with a quadratic regression weighted by reciprocal […]. Standards were analyzed in duplicate. Quality control (QC) samples, prepared in blank matrix at the same concentrations as the standard were also analyzed in each analytical set. For the compound of SEQ ID NO:9, the calculated concentrations of more than 80% of the QCs were within 20% of nominal concentration, indicating acceptable assay performance.
The compound of SEQ ID NO:9 plasma concentration vs. time data were analyzed by noncompartmental methods using the […]™ software program. The Cmax and Tmax values were recorded directly from experimental observations. The AUC0-n and AUCtot values were calculated using a combination of linear and log trapezoidal summations. […]

Another series deals with ob/ob mice. As to the kind of experiment: intraperitoneal glucose tolerance test (ipGTT) after sc injection in ob/ob mice (plasma glucose, insulin). Particulars: for % AUC Reduction in Plasma Glucose in an IP Glucose Tolerance Test after SC Injection of Compound / effect on postprandial plasma glucose (in words): ob/ob mice; for % AUC Reduction in Plasma Glucose in an IP Glucose Tolerance Test after SC Injection of Compound: 10 nmol/kg, vs vehicle group; for effect on postprandial plasma glucose (in words): sc, ipGTT 0-180 or 210 min; for Potency in ob/ob mice, ED50: sc injection, ipGTT, plasma glucose AUC. The procedure: (§1) Peptides were dissolved in an appropriate vehicle at a concentration in nmol/ml equivalent to the dose that was to be administered in nmol/kg so that each mouse would receive the same volume/weight of dosing solution. Male C57BL/6J-ob/ob mice (10 weeks old) were randomized into groups of 6 mice per group based on fed plasma glucose and body weight. After an overnight fast, mice were weighed and placed in the experimental lab. After 30 min in the environment, the mice were bled via tail tip at −30 min and immediately injected subcutaneously (sc) with vehicle or the peptide dissolved in vehicle (0.1 ml solution/100 g body weight). At time 0 the mice were bled and then injected intraperitoneally with 50% glucose (2 g/kg) to initiate the intraperitoneal glucose tolerance test (ipGTT). The mice were bled 30, 60, 120 and 180 min after the glucose injection. Blood samples were drawn into potassium EDTA, placed on ice during the study and subsequently centrifuged for 10 min at 3000 rpm at 4° C. Plasma samples were diluted 11-fold for glucose analysis in the Cobas System. Another 5 μl plasma sample was diluted 5-fold with 20 μl of Sample Diluent (Insulin ELISA assay kit, Crystal Chem Inc.) and stored at −20° C. for subsequent analysis using the Ultra Sensitive Mouse Insulin ELISA kit (Crystal Chem Inc.).

Series [2] in a line: Exposure during ipGTT in ob/ob mice. To be noted: sc. As for the experimental part:
as §1

*1 amine or outer side, *2 acyl side, *3 side chain or, on linkers, in order; H or OH if unused. Where a SMILES comes first, the peptide text is derived from it. [ ]: non-standard residue; d: D form. The star is where a group is joined. ξ: configuration not given here. Ala(6-(2-MePh)pyridin-3-yl) = Cc1ccccc1-c1ccc(C[C@H](N)C(=O)O)cn1; Bip(2'-Et-4'-OMe) = CCc1cc(OC)ccc1-c1ccc(C[C@H](N)C(=O)O)cc1; Lactoyl(3-(imidazol-4-yl)) = O=C([C@@H](O)Cc1c[nH]cn1)*; X2 = Cc1ccccc1-c1ncc(C[C@H](N[*:1])C(=O)[*:2])cn1; Bip(2'-Me) = Cc1ccccc1-c1ccc(C[C@H](N)C(=O)O)cc1; αMePhe(2,6-F2) = C[C@](N)(Cc1c(F)cccc1F)C(=O)O; αMePhe(2-F) = C[C@](N)(Cc1ccccc1F)C(=O)O; ξαMePhe(2-F) = CC(N)(Cc1ccccc1F)C(=O)O; Thr(3ξ) = CC(O)[C@H](N)C(=O)O; αMeP = C[C@@]1(C(=O)O)CCCN1; dNMeA = CN[C@H](C)C(=O)O; ξαMeP = CC1(C(=O)O)CCCN1; Aib = CC(C)(N)C(=O)O; Moc = COC(=O)*

With `CCc1cc(OC)ccc1-c1ccc(C[C@H](NC(=O)[C@H](CC(=O)O)NC(=O)[C@H](CO)NC(=O)[C@@H](NC(=O)[C@](C)(Cc2ccccc2F)NC(=O)[C@@H](NC(=O)CNC(=O)[C@H](CCC(=O)O)NC(=O)C(C)(C)NC(=O)[C@@H](N)Cc2c[nH]cn2)C(C)O)C(C)O)C(=O)N[C@@H](Cc2ccc(-c3ccccc3C)cc2)C(N)=O)cc1` (some centres unmarked) [Compound I, reference compound] (H-H[Aib]EG[Thr(3ξ)][αMePhe(2-F)][Thr(3ξ)]SD[Bip(2'-Et-4'-OMe)][Bip(2'-Me)]-NH2), the “Exposure in dogs (sc@67 μg/kg)” value in series [1] (Table I) was 0.089 µM·h. Also, the AUC in series [1] amounted to 0.089 µM·h. For the same compound, in the series with ob/ob mice, the “% AUC Reduction in Plasma Glucose in an IP Glucose Tolerance Test after SC Injection of Compound” value is −15% (p = 0.247, NS); the “effect on postprandial plasma glucose (in words)” value was “decreasing in a dose-dependent manner”; the “Potency in ob/ob mice, ED50” value is “ED50 = 50 nmoles/kg”. Further, the “Potency in ob/ob mice, ED50” value with ob/ob mice (listed as compound I) stood at 50 nmol/kg. Besides, in series [2], the “Exposure/dose during ipGTT in ob/ob mice” value came out at 22 nM * h/nmol/kg. Consider `CCc1cc(OC)ccc1-c1ccc(C[C@H](NC(=O)[C@H](CC(=O)O)NC(=O)[C@H](CO)NC(=O)[C@@H](NC(=O)[C@](C)(Cc2ccccc2F)NC(=O)[C@@H](NC(=O)CNC(=O)[C@H](CCC(=O)O)NC(=O)[C@@H](C)N(C)C(=O)[C@@H](N)Cc2c[nH]cn2)[C@@H](C)O)[C@@H](C)O)C(=O)N[C@@H](Cc2ccc(-c3ccccc3C)nc2)C(N)=O)cc1` [SEQ ID NO: 119] (H-H[dNMeA]EGT[αMePhe(2-F)]TSD[Bip(2'-Et-4'-OMe)][Ala(6-(2-MePh)pyridin-3-yl)]-NH2), for which the AUC in series [1] came out at 1.26 µM·h. Take `CCc1cc(OC)ccc1-c1ccc(C[C@H](NC(=O)[C@H](CC(=O)O)NC(=O)[C@H](Cc2c[nH]cn2)NC(=O)[C@@H](NC(=O)[C@](C)(Cc2ccccc2F)NC(=O)[C@@H](NC(=O)CNC(=O)[C@H](CCC(=O)O)NC(=O)[C@]2(C)CCCN2C(=O)[C@@H](N)Cc2c[nH]cn2)[C@@H](C)O)[C@@H](C)O)C(=O)N[C@@H](Cc2ccc(-c3ccccc3C)nc2)C(N)=O)cc1` [SEQ ID NO: 120] (H-H[αMeP]EGT[αMePhe(2-F)]THD[Bip(2'-Et-4'-OMe)][Ala(6-(2-MePh)pyridin-3-yl)]-NH2): in series [1], the AUC worked out at 1.12 µM·h.

For `CCc1cc(OC)ccc1-c1ccc(C[C@H](NC(=O)[C@H](CC(=O)O)NC(=O)[C@H](CO)NC(=O)[C@@H](NC(=O)[C@](C)(Cc2ccccc2F)NC(=O)[C@@H](NC(=O)CNC(=O)[C@H](CCC(=O)O)NC(=O)C(C)(C)NC(=O)[C@@H](N)Cc2c[nH]cn2)[C@@H](C)O)[C@@H](C)O)C(=O)N[C@@H](Cc2cnc(-c3ccccc3C)nc2)C(N)=O)cc1` [SEQ ID NO: 130] (H-H[Aib]EGT[αMePhe(2-F)]TSD[Bip(2'-Et-4'-OMe)][X2]-NH2), in series [1], the AUC amounted to 0.541 µM·h. In the case of `CCc1cc(OC)ccc1-c1ccc(C[C@H](NC(=O)[C@H](CC(=O)O)NC(=O)[C@H](CO)NC(=O)[C@@H](NC(=O)C(C)(Cc2ccccc2F)NC(=O)[C@@H](NC(=O)CNC(=O)[C@H](CCC(=O)O)NC(=O)C2(C)CCCN2C(=O)[C@H](Cc2c[nH]cn2)NC(=O)OC)[C@@H](C)O)[C@@H](C)O)C(=O)N[C@@H](Cc2ccc(-c3ccccc3C)nc2)C(N)=O)cc1` (some centres unmarked) [SEQ ID NO: 139] (Moc-H[ξαMeP]EGT[ξαMePhe(2-F)]TSD[Bip(2'-Et-4'-OMe)][Ala(6-(2-MePh)pyridin-3-yl)]-NH2), the AUC in series [1] is 1.6 µM·h. Also, in the series on ob/ob mice, the “% AUC Reduction in Plasma Glucose in an IP Glucose Tolerance Test after SC Injection of Compound” value is reported as −63% (p < 0.01). `CCc1cc(OC)ccc1-c1ccc(C[C@H](NC(=O)[C@H](CC(=O)O)NC(=O)[C@H](CO)NC(=O)[C@@H](NC(=O)[C@](C)(Cc2c(F)cccc2F)NC(=O)[C@@H](NC(=O)CNC(=O)[C@H](CCC(=O)O)NC(=O)[C@]2(C)CCCN2C(=O)[C@H](Cc2c[nH]cn2)NC(=O)OC)[C@@H](C)O)[C@@H](C)O)C(=O)N[C@@H](Cc2ccc(-c3ccccc3C)nc2)C(N)=O)cc1` [SEQ ID NO: 140] (Moc-H[αMeP]EGT[αMePhe(2,6-F2)]TSD[Bip(2'-Et-4'-OMe)][Ala(6-(2-MePh)pyridin-3-yl)]-NH2): in series [1], the AUC came to 0.283 µM·h. Still for that read-out and setting: under `CCc1cc(OC)ccc1-c1ccc(C[C@H](NC(=O)[C@H](CC(=O)O)NC(=O)[C@H](CO)NC(=O)[C@@H](NC(=O)[C@](C)(Cc2ccccc2F)NC(=O)[C@@H](NC(=O)CNC(=O)[C@H](CCC(=O)O)NC(=O)[C@@H](C)NC(=O)[C@@H](N)Cc2c[nH]cn2)[C@@H](C)O)[C@@H](C)O)C(=O)N[C@@H](Cc2ccc(-c3ccccc3C)nc2)C(N)=O)cc1` [SEQ ID NO: 149] (H-H[dA]EGT[αMePhe(2-F)]TSD[Bip(2'-Et-4'-OMe)][Ala(6-(2-MePh)pyridin-3-yl)]-NH2) stands 0.94 µM·h; under `CCc1cc(OC)ccc1-c1ccc(C[C@H](NC(=O)[C@H](CC(=O)O)NC(=O)[C@H](CO)NC(=O)[C@@H](NC(=O)[C@](C)(Cc2ccccc2F)NC(=O)[C@@H](NC(=O)CNC(=O)[C@H](Cc2c[nH]cn2)NC(=O)C(C)(C)NC(=O)[C@@H](N)Cc2c[nH]cn2)[C@@H](C)O)[C@@H](C)O)C(=O)N[C@@H](Cc2ccc(-c3ccccc3C)nc2)C(N)=O)cc1` [SEQ ID NO: 150] (H-H[Aib]HGT[αMePhe(2-F)]TSD[Bip(2'-Et-4'-OMe)][Ala(6-(2-MePh)pyridin-3-yl)]-NH2), 0.979 µM·h. In the case of `CCc1cc(OC)ccc1-c1ccc(C[C@H](NC(=O)[C@H](CC(=O)O)NC(=O)[C@H](Cc2c[nH]cn2)NC(=O)[C@@H](NC(=O)C(C)(Cc2ccccc2F)NC(=O)[C@@H](NC(=O)CNC(=O)[C@H](CCC(=O)O)NC(=O)C2(C)CCCN2C(=O)[C@@H](O)Cc2c[nH]cn2)[C@@H](C)O)[C@@H](C)O)C(=O)N[C@@H](Cc2ccc(-c3ccccc3C)nc2)C(N)=O)cc1` (some centres unmarked) [SEQ ID NO: 151] ({Lactoyl(3-(imidazol-4-yl))}-[ξαMeP]EGT[ξαMePhe(2-F)]THD[Bip(2'-Et-4'-OMe)][Ala(6-(2-MePh)pyridin-3-yl)]-NH2), the “effect on postprandial plasma glucose (in words)” value with ob/ob mice is on record as “statistically significant decrease”. In addition, the “Exposure/dose during ipGTT in ob/ob mice” value in series [2] was 16 nM * h/nmol/kg.
